Measured values from patent publication US7968109B2, “Liquid compositions for treating plant propagation materials” (Syngenta Crop Protection Inc., priority 2005, dated 2011).

Columns and labels:
Colorado Potato Beetles = assay: Control of Colorado Potato Beetles on potatoes (defoliation); type: in vivo
Protocol: Comparative trials were conducted to show the protection of the formulation described herein against different insect pests.

[1] = Selective loading of active ingredient on cut side and skin side of tuber; type: physicochemical, potato; settings: analyte fludioxonil
Text: Generally, treatment of potato tubers and/or cut seeds with liquid pesticides results in the majority of the pesticide settling on the cut side of the seed rather than on the skin side of the seed. Such affinity for the cut side is thought to be based on the pesticides' affinity for water. […] Rather, the pesticidal action is more useful on the skin side of the tuber, where the eyes are present and where germination occurs.
Although not wanting to be bound by any particular theory, it is thought that the nonpolar nature of the waxes and silicas present in the formulations of the present invention have affinity for the skin side, causing a greater loading of the active ingredients on the skin side.

SMILES	% Defoliation (Colorado Potato Beetles; 102 days after planting (Wash. State))	% Defoliation (Colorado Potato Beetles; 105 days after planting (Idaho))	Amount of fludioxonil present on cut side of tuber ([1]; cut side)	Amount of fludioxonil present on skin side of tuber ([1]; skin side)
O=[N+]([O-])NC1=NCCN1Cc1ccc(Cl)nc1 [Imidacloprid, imidacloprid]	9%	0%	–	–
N#Cc1c[nH]cc1-c1cccc2c1OC(F)(F)O2 [Fludioxonil]	–	–	21	21
